Results as given in patent publication US20230114728A1 (Venatorx Pharmaceuticals, Inc., priority 2019, published 2023).
Converted amounts (≈) assume the structure as drawn.

Experiments:
Assay type in all cases: cell-based
N. gonorrhoeae WHO G = experiment: Liquid broth MIC in Fastidious broth; conditions: Neisseria gonorrhoeae; N. gonorrhoeae strain WHO G; Fastidious broth; read-out: Minimum Inhibitory Concentration, N. gonorrhoeae WHO G
Description: (§1) Example V: In Vitro Antibacterial Assays for N. gonorrhoeae Strains
(§2) Additional antibacterial testing of the series was performed in 8 reference strains of N. gonorrhoeae (ATCC 49226, FA1090, WHO G, WHO L, WHO K, H041, WHO Z, and WHO Q). ATCC 49226, FA1090, WHO G, and WHO L produce wild type or wild-type like PBP2. WHO K, H041, WHO Z, and WHO Q produce mosaic PBP2. Liquid broth-based assays were used for antibacterial testing of PBP inhibitors in Neisseria gonorrhoeae. Briefly, cryo-preserved bacterial cultures of clinical strains were streaked for isolation on Chocolate Agar (72 g/L (2×) GC Agar Base (BD #228950) and 2% (2×) Hemoglobin was autoclaved at 121° C. for 20 minutes to sterilize. Once cooled to ˜50° C. the 2× GC Agar Base and 2× Hemoglobin solutions are combined and 1% IsoVitaleX Enrichment (BD #211876) was added to the solution). Strains were incubated at 36° C. and 5% CO2 to allow growth of colonies, 24 hours before inoculum preparation. 2-fold serial dilutions of test compounds were conducted in a 96 well plate with a final volume of 75 μL per well at 2-fold the final desired concentration in Fastidious broth (Remel #R07664). For preparation of assay inoculum, a direct suspension was prepared by aseptically swabbing all colonies from agar plates into culture tubes containing 2 mL of fresh sterile saline. After the dilution plates were set up, direct suspensions were then diluted in a cuvette containing sterile saline and the optical density was measured at 600 nm. Inocula were diluted such that 75 μL of this culture in Fastidious broth results in a starting bacterial concentration of 5×10^5 CFU/mL when added to the dilution plates. The plates were incubated for ˜24 hours at 36° C. and 5% CO2. The MIC was read visually as the lowest concentration well with <10% bacterial growth compared to wells of full growth.

[1] = test system: N. gonorrhoeae ATCC 49226; experiment: Liquid broth MIC in Fastidious broth; conditions: Neisseria gonorrhoeae, ATCC49226; N. gonorrhoeae strain ATCC 49226; Fastidious broth; read-out: Minimum Inhibitory Concentration, N. gonorrhoeae ATCC 49226
Description: as §1, §2

N. gonorrhoeae WHO L = experiment: Liquid broth MIC in Fastidious broth; conditions: Neisseria gonorrhoeae; N. gonorrhoeae strain WHO L; Fastidious broth; read-out: Minimum Inhibitory Concentration, N. gonorrhoeae WHO L
Description: as §1, §2

N. gonorrhoeae FA1090 = experiment: Liquid broth MIC in Fastidious broth; conditions: Neisseria gonorrhoeae; N. gonorrhoeae strain FA1090; Fastidious broth; read-out: Minimum Inhibitory Concentration, N. gonorrhoeae FA1090
Description: as §1, §2

N. gonorrhoeae WHO K = experiment: Liquid broth MIC in Fastidious broth; conditions: Neisseria gonorrhoeae, read-out: Minimum Inhibitory Concentration, N. gonorrhoeae WHO K
Description: as §1, §2

N. gonorrhoeae H041 = experiment: Liquid broth MIC in Fastidious broth; conditions: Neisseria gonorrhoeae, H041, read-out: Minimum Inhibitory Concentration, N. gonorrhoeae H041
Description: as §1, §2

E. coli D22 = experiment: Broth microdilution MIC in CAMHB; conditions: Escherichia coli; E. coli D22 (hyper-permeable); MHB; read-out: Minimum Inhibitory Concentration, E. coli D22
Summary of the method: (§3)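 Hyper-permeable or efflux-deficient strains serve to probe outer-membrane penetration. Growth inhibition is scored visually after 16-20 h at 37° C in CAMHB, starting from 2-8×10^5 CFU/mL.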

A. baumannii ATCC 19606 = experiment: Broth microdilution MIC in CAMHB; conditions: Acinetobacter baumannii, ATCC19606; MHB; read-out: Minimum Inhibitory Concentration, A. baumannii ATCC 19606
Summary of the method: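 CLSI microdilution; CAMHB; inoculum 2-8×10^5 CFU/mL from 3-5 h 37° C culture; 2-fold compound series; 16-20 h, 37° C; MIC = lowest well without visible growth.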

E. coli ATCC 25922 = experiment: Broth microdilution MIC in CAMHB; conditions: Escherichia coli, ATCC25922; E. coli ATCC 25922; MHB; read-out: Minimum Inhibitory Concentration, E. coli 25922
Summary of the method: as §3

E. coli AG100 = experiment: Broth microdilution MIC in CAMHB; conditions: Escherichia coli; E. coli AG100 (wild-type parent); MHB; read-out: Minimum Inhibitory Concentration, E. coli AG100
Summary of the method: as §3

E. coli AG100A = experiment: Broth microdilution MIC in CAMHB; conditions: Escherichia coli, read-out: Minimum Inhibitory Concentration, E. coli AG100A
Summary of the method: as §3

SMILES	MIC (N. gonorrhoeae WHO G) [µg/mL]	MIC [1] [µg/mL]	MIC (N. gonorrhoeae WHO L) [µg/mL]	MIC (N. gonorrhoeae FA1090) [µg/mL]	MIC (N. gonorrhoeae WHO K) [µg/mL]	MIC (N. gonorrhoeae H041) [µg/mL]	MIC (E. coli D22) [µg/mL]	MIC (A. baumannii ATCC 19606) [µg/mL]	MIC (E. coli ATCC 25922) [µg/mL]	MIC (E. coli AG100) [µg/mL]	MIC (E. coli AG100A) [µg/mL]
NCCN1CCN(C(=O)N[C@@H](C(=O)N[C@H]2Cc3ccc(F)c(C(=O)O)c3OB2O)c2c(F)cc(O)c(O)c2Cl)C(=O)C1=O (single isomer, unassigned) [Example 26]	> 64	> 64	> 64	16 to 32 (≈ 25.6 to 51.1 µM)	> 64	> 64	–	–	–	–	–
NCCCN1CCN(C(=O)N[C@@H](C(=O)N[C@H]2Cc3ccc(F)c(C(=O)O)c3OB2O)c2c(F)cc(O)c(O)c2Cl)C(=O)C1=O (single isomer, unassigned) [Example 27]	16 to 32 (≈ 25 to 50 µM)	> 64	> 64	16 to 32 (≈ 25 to 50 µM)	> 64	> 64	–	–	–	–	–
NCCCN1CCN(C(=O)N[C@H](C(=O)N[C@H]2Cc3ccc(F)c(C(=O)O)c3OB2O)c2ccc(O)c(O)c2Cl)C(=O)C1=O (single isomer, unassigned) [Example 28]	> 64	> 64	> 64	> 64	> 64	> 64	–	–	–	–	–
O=C(O)c1c(F)ccc2c1OB(O)[C@@H](NC(=O)[C@H](NC(=O)N1CCNC1=O)c1c(F)cc(O)c(O)c1Cl)C2 (single isomer, unassigned) [Example 34]	16 to 32 (≈ 28.8 to 57.7 µM)	16 to 32 (≈ 28.8 to 57.7 µM)	> 64	4 to 8 (≈ 7.21 to 14.4 µM)	> 64	> 64	–	–	–	–	–
CS(=O)(=O)N1CCN(C(=O)N[C@@H](C(=O)N[C@H]2Cc3ccc(F)c(C(=O)O)c3OB2O)c2c(F)cc(O)c(O)c2Cl)C1=O (single isomer, unassigned) [Example 35]	16 to 32 (≈ 25.3 to 50.6 µM)	16 to 32 (≈ 25.3 to 50.6 µM)	> 64	4 to 8 (≈ 6.32 to 12.6 µM)	> 64	> 64	–	–	–	–	–
NCCN1CCN(C(=O)N[C@@H](C(=O)N[C@H]2Cc3ccc(F)c(C(=O)O)c3OB2O)c2c(F)cc(O)c(O)c2F)C(=O)C1=O (single isomer, unassigned) [Example 40]	16 to 32 (≈ 26.3 to 52.5 µM)	16 to 32 (≈ 26.3 to 52.5 µM)	> 64	4 to 8 (≈ 6.57 to 13.1 µM)	> 64	> 64	–	–	–	–	–
NCCCN1CCN(C(=O)N[C@@H](C(=O)N[C@H]2Cc3ccc(F)c(C(=O)O)c3OB2O)c2c(F)cc(O)c(O)c2F)C(=O)C1=O (single isomer, unassigned) [Example 41]	16 to 32 (≈ 25.7 to 51.3 µM)	16 to 32 (≈ 25.7 to 51.3 µM)	> 64	4 to 8 (≈ 6.42 to 12.8 µM)	> 64	> 64	–	–	–	–	–
O=C(O)c1ccc(C(NC(=O)c2ccc(O)c(O)c2Cl)C(=O)N[C@H]2Cc3cccc(C(=O)O)c3OB2O)cc1F (stereo partly drawn) [Example 7, (3R)-3-(2-(4-carboxy-3-fluorophenyl)-2-(2-chloro-3,4-dihydroxybenzamido)acetamido)-2-hydroxy-3,4-dihydro-2H-benzo[e][1,2]oxaborinine-8-carboxylic acid]	> 64	> 64	> 64	16 to 32 (≈ 27.9 to 55.9 µM)	> 64	> 64	–	–	–	–	–
CCN1CCN(C(=O)NC(C(=O)N[C@H]2Cc3ccc(S)c(C(=O)O)c3OB2O)c2csc(N)n2)C(=O)C1=O (stereo partly drawn) [Example 54, (3R)-3-(2-(2-aminothiazol-4-yl)-2-(4-ethyl-2,3-dioxopiperazine-1-carboxamido)acetamido)-2-hydroxy-7-mercapto-3,4-dihydro-2H-benzo[e][1,2]oxaborinine-8-carboxylic acid]	–	–	–	–	–	–	32 to 64 (≈ 56.9 to 114 µM)	> 128	> 128	> 128	> 128
CCN1CCN(C(=O)NC(C(=O)N[C@H]2Cc3ccc(SCc4ccc(O)cc4)c(C(=O)O)c3OB2O)c2csc(N)n2)C(=O)C1=O (stereo partly drawn) [Example 55, (3R)-3-(2-(2-aminothiazol-4-yl)-2-(4-ethyl-2,3-dioxopiperazine-1-carboxamido)acetamido)-2-hydroxy-7-((4-hydroxybenzyl)thio)-3,4-dihydro-2H-benzo[e][1,2]oxaborinine-8-carboxylic acid]	–	–	–	–	–	–	8 to 16 (≈ 12 to 23.9 µM)	> 128	32 to 64 (≈ 47.9 to 95.7 µM)	> 128	32 to 64 (≈ 47.9 to 95.7 µM)
